Experiments:
[1] = test system: LPS induced acute lung inflammation; test: Example 1: LPS induced acute lung inflammation, interalveolar septa distance; assay type: in vivo, mice; conditions: for Interalveolar space (average spatial distance for the interalveolar septa): 6-week course, then single intranasal LPS
Text: LPS administration is known to promote inflammation through various mechanisms including secretion of pro-inflammatory cytokines, eicosanoids and induction of ROS. This example employed LPS to ascertain the extent of inflammation arising from ROS induced oxidation of H-AA versus D-AA in the lungs of mice. Specifically, four groups of mice were used. The first group was control mice treated with H-LA control mice. The second group of mice received a 6-week course of D-LA. It is understood that in vivo conversion of a portion of both H-LA and D-LA occurs to provide for AA and 13,13-D2-AA respectively. The third group of mice received a 6-week course of H-AA. The fourth group of mice received a 6-week course of D-AA. All groups then received a single intranasal administration of LPS to induce acute lung inflammation. The degree of the inflammatory response was based on the interalveolar septa distance where the larger the distance of the septa, the greater the degree of inflammation. The animals were sacrificed and the interalveolar septa distance was measured. Table 1 provides an average degree of spatial distance for the interalveolar septa for the results of all groups.

LPS-treated mice lungs = test: Example 5: H-LA / D2-LA by oral gavage, then intranasal LPS, lung histology; assay type: in vivo, BALB/c mice; conditions: 6 weeks of H-LA or D2-LA, then 1 mg/kg intranasal LPS, 24 hours
Experimental: (§1) Lung, stomach and colon samples were fixed with 4% formaldehyde (freshly prepared from paraformaldehyde), paraffin embedded and cut into 2-4 μm sections. For routine histology, all fixed tissue sections were stained with hematoxylin-eosin (H&E). All slides were evaluated at 10 fields each using a Genetic Pro Bino light microscope (A) and photographed with a digital camera (Delta Optical). Stomach and colon tissue sections were analyzed for signs of active and chronic inflammation, formation of lymph follicles, and hyperplasia of epithelial cells. The severity of lung injury was scored according to lung pathological changes, including interalveolar and perivascular hemorrhages, peri-vascular and peribronchial infiltration, perivascular edema, thickness of alveolar wall, alveolar space value, and emphysematous transformations. Lung tissue samples were additionally stained with commercially available Martius Scarlet Blue (MSB) stain kit (Avantik, USA) for fibrin visualization. The presence of homogeneous fibrin masses of yellow, pink or red color in the lung blood vessels were interpreted as thrombotic masses.
In our first experiment, we evaluated the effects of linoleic acid (LA) supplementation on interalveolar septa thickness and AS in LPS-treated mice. […]

[2] = human, in vivo, po; cited from earlier work
[3] = test system: LPS induced acute lung inflammation; test: Example 2: LPS induced inflammation, H-AA versus D-AA, male and female mice; assay type: in vivo; conditions: 6-week course, then single intranasal LPS
Experimental: LPS administration was conducted as per Example 1 above except that four groups of mice were used. The first two groups (1 and 2) were control mice (male and female). The next two groups (3 and 4) of mice received a 6-week course of H-AA (male and female). Finally, the last two groups (5 and 6) of mice received a 6-week course of D6-AA (second group). Groups 3, 4, 5 and 6 then received a single intranasal administration of LPS to induce acute lung inflammation. The degree of the inflammatory response was determined per Example 1. Next, the height and distance of the interalveolar septa was determined to provide for the surface area of the inflammation.

healthy mice = conditions: in vivo
Experimental: (§2) Mouse diet was from Research Diets (New Brunswick, NJ) based on fat-free AIN-93G. Fat was added at 11.3% by weight total fat and 0.25% either normal H-AA or D-AA respectively (Table 5).
Male and Female BALB/c and C57BL/6 mice were provided with standard environmental conditions i.e., 22±1° C., 55±5% humidity and 12 h light/dark cycle with free food and water access. At the age of six weeks, animals were split into 8 groups (n=160 total, 20 of each gender) and were continuously fed ad libitum on the diet containing either H-AA or D-AA for 2, 4, 6 or 8 weeks at the daily rate of ca. 5 g of diet per mouse for the duration of the study. The other two groups of animals (n=40, 20 of each gender) received neither PUFA-enriched diets nor LPS served as controls. The body weight and food intake were measured once a week. After completing the appropriate diet course, half of the mice in each group (10 females and 10 males) (i) underwent the procedure of bronchoalveolar lavage (BAL) to accomplish cytological smears, (ii) were subjected to tissue harvesting and collection of colon contents (after humane euthanasia with lethal dose of sodium thiopental, 100 mg/kg intravenously). On the ninth week of this diet course, the other half of the group was administered 1 mg/kg of intranasal (IN) LPS from Escherichia coli O111:B4 (Sigma Aldrich) 24 hours prior to BAL and subsequent euthanasia. 40 D-AA fed animals (20 males, 20 females) were switched to the H-AA diet for washout experiments. […]
as §1, with “masses. […]” for “masses.”
Cell free BAL fluid supernatants as well as colon tissue samples were analyzed using commercially available Mouse IL-1B ELISA Kit (R&D systems, Lot P265854, USA) and the Biotek ELx-808 microplate reader (Biotek, USA) according to the instructions recommended by the manufacturer).

[4] = test system: LPS-induced acute lung injury; test: Example 5: response to intranasal LPS in mice fed AA diets (ALI model); assay type: in vivo, BALB/c and C57BL/6 mice
Experimental: as §2
Male and Female BALB/c and C57BL/6 mice were provided with standard environmental conditions i.e., 22±1° C., 55±5% humidity and 12 h light/dark cycle with free food and water access. At the age of six weeks, animals were split into 8 groups (n=160 total, 20 of each gender) and were continuously fed ad libitum on the diet containing either H-AA or D-AA for 2, 4, 6 or 8 weeks at the daily rate of ca. 5 g of diet per mouse for the duration of the study. The other two groups of animals (n=40, 20 of each gender) received neither PUFA-enriched diets nor LPS served as controls. The body weight and food intake were measured once a week. After completing the appropriate diet course, half of the mice in each group (10 females and 10 males) (i) underwent the procedure of bronchoalveolar lavage (BAL) to accomplish cytological smears, (ii) were subjected to tissue harvesting and collection of colon contents (after humane euthanasia with lethal dose of sodium thiopental, 100 mg/kg intravenously). On the ninth week of this diet course, the other half of the group was administered 1 mg/kg of intranasal (IN) LPS from Escherichia coli O111:B4 (Sigma Aldrich) 24 hours prior to BAL and subsequent euthanasia. 40 D-AA fed animals (20 males, 20 females) were switched to the H-AA diet for washout experiments.
Cell differential counts were performed on smear slides from resuspended cell pellets of BAL, using commercially available May-Grünwald-Giemsa staining kits. All slides were evaluated in a light microscope (Optec BK5000) at ×200 magnification. These cell counts such as lymphocytes, neutrophils, plasmacytes and macrophages were obtained from 10 fields of each slide.
as §1
We challenged mice fed AA-diets for 6 weeks using LPS treatment. […] Perivascular edema, signs of thrombosis, alveolar wall thickening, irregular distribution of air spaces, and focal areas of alveolar hemorrhage were also observed. We preferred intranasal administration to the more extreme intratracheal route that induces IL-1β which in turn amplifies inflammation making it difficult to distinguish between the early and late consequences of the LPS challenge. Indeed, 24 hours after intranasal administration of LPS at a dose of 1 mg/kg, there was no significant increase in the IL-1B content in BAL fluid or colon homogenates compared to animals not treated with LPS regardless of type or duration of the diets. Intranasal LPS 24 hours post administration increased neutrophils in BAL fluid in all treated groups regardless of gender or form of AA diets.

Row | Structure (SMILES) | Interalveolar space (average spatial distance for the interalveolar septa) [1] [μm] | reduction in the spatial distance for the interalveolar septa ([1]; D-LA relative to H-LA, comparator for D-AA not stated) [%] | alveolar wall / interalveolar septum thickness (in words) (LPS-treated mice lungs) | safety record [2] | Interalveolar space ([3]; female mice) [μm] | Interalveolar surface area ([3]; female mice) [μm^2] | Interalveolar space ([3]; male mice) [μm] | Interalveolar surface area ([3]; male mice) [μm^2] | alveolar wall thickness, H-AA versus D-AA cohorts (healthy mice; both, BALB/c and C57BL/6, mouse, 8 weeks) | alveolar spaces (healthy mice; mouse) | average thickness of interalveolar septa, H-AA versus D-AA (healthy mice; mouse) | tolerability (healthy mice; mouse) | LPS-induced interalveolar septa / wall thickening (in words) ([4]; 6-week diet, then single intranasal LPS) | LPS-induced lung tissue damage, inflammation and emphysema (in words) ([4]; dietary consumption prior to LPS exposure)
1 | [2H]C([2H])(/C=C\CCCCC)/C=C\CCCCCCCC(=O)O [D-LA, 11,11-D2-Linoleic Acid] | 10.7 | ~25 | small, but statistically significant decrease | impressive safety record | – | – | – | – | – | – | – | – | – | –
2 | CCCCC/C=C\C/C=C\CCCCCCCC(=O)O [H-LA, linoleic acid] | 14.2 | – | significantly higher | – | – | – | – | – | – | – | – | – | – | –
3 | CCCCC/C=C\C/C=C\C/C=C\C/C=C\CCCC(=O)O [H-AA, arachidonic acid, reference compound] | 9.1 | – | – | – | ~9.7 | ~380 | ~8.1 | ~540 | significantly (p≤0.05) thicker | No relevant changes | did not significantly differ | well tolerated without apparent adverse reactions | significantly increased | did not improve and even aggravated

Source: patent US12576059B2, “Methods and compositions for treatment of inflammatory disease” (priority 2021, dated 2026)
